Data on 19 molecules can be found in patent publication US7618958B2, “Stereospecific anxiolytic and anticonvulsant agents with reduced muscle-relaxant, sedative-hypnotic and ataxic effects” (WISYS Technology Foundation, Inc., priority 2004, dated 2009).

The test system of one data set is male Wistar rats. Description: Elevated plus-maze in rats. As to conditions: rats, mean, N 6; for Open Entries: SOLVENT mean 2.57; for Closed Entries: SOLVENT mean 7.14; for Total Distance Travelled (m): SOLVENT mean 9.30; for Total Entries: SOLVENT mean 9.71; for % Open Time: SOLVENT mean 20.43; for % Open Entries: SOLVENT mean 25.57; for Time in open arms: SOLVENT mean 50.29; for Time in closed arms: SOLVENT mean 196.29. The data set is classed as in vivo, rat. As to the method: Except where noted, the methods used were those of Miroslav M., et al., (2004) Pharmacology, Biochemistry and Behavior 79: 279-290. Experiments were carried out on male Wistar rats (Military Farm, Belgrade, Serbia and Montenegro), weighing 200-240 g. All procedures in the study conformed to EEC Directive 86/609 and were approved by the Ethical Committee on Animal Experimentation of the Medical Faculty in Belgrade. The rats were housed in transparent plastic cages, six animals per cage, and had free access to pelleted food and tap water before and after drug administration. The temperature of the animal room was 22±1° C., the relative humidity 40-70%, the illumination 120 1× and the 12/12-h light/dark period (light on at 06:00 h). All handling and testing took place during the light portion of the cycle. Throughout the study the animals were used only once.
Midazolam and flumazenil were generously donated from F. Hoffman-La Roche (Basel, Switzerland). Zolpidem was purchased from Toronto Research Chemicals (North York, Canada) and DMCM from Research Biochemicals (Natick, Mass., USA). All drugs were dissolved/suspended with the aid of sonication in a solvent containing 85% distilled water, 14% propylene glycol and 1% Tween 80™, and were administered intraperitoneally, in a volume of 1 ml/kg, 20 min before testing. Doses are expressed as the base forms of the drugs. In the cases of combined treatment, agonists were administered at separate sites, immediately after the antagonist. Each animal received a total volume of 2 ml/kg of compounds tested or appropriate vehicles, at two different injection sites.
The test apparatus was constructed of sheet metal, with a black rubber floor. It consisted of a maze elevated to a height of 50 cm with two open (50×10 cm) and two enclosed arms (50×10×40 cm), connected by junction area (central platform) measured 10×10 cm. Although the floor was rubberized, a ledge of sheet metal (0.3 cm high) surrounding the open arms was added, to avoid rats falling off. The illumination in the experimental room consisted of one red neon tube fixed on the ceiling, giving light intensity of 10 1× on the surface of the arms. The experiments were carried out during the diurnal phase (between 08:00 and 12:00 h). At the beginning of the experiment, rats were placed in the centre of the maze, facing one of the enclosed arms and observed for 5 min. The observer sat in the same room 1 m from the maze. After each trial, the maze was cleaned with dry and wet towels. Throughout the study, the number of rats per treatment group was 8-14. Each experiment was run over 4 consecutive days, with three control rats per day; as there was no difference in plus-maze activity among control subgroups, they were pooled in a single control group (n=12).
All numerical data presented in the figures were given as the mean±S.E.M. Each dose-response curve (agonist or antagonist alone or agonist+antagonist) was assessed by a one-way ANOVA. If the ANOVA was significant, each treatment condition was compared with the appropriate solvent control by a Dunnett's test (a=0.05). In case of significant effect in the number of enclosed arm entries, an analysis of covariance (ANCOVA) was performed in the anxiety-related parameters using the number of enclosed arm entries as covariate. Interactions between the agonists and antagonists were analyzed separately with a two-way ANOVA [factors: agonist dose versus cotreatment (an antagonist or saline)]; pairwise comparisons for the assessment of the antagonist influence on the agonist effects were conducted by Tukey's test, one of the methods recommended even in the absence of an overall significant F-test (Wilcox R R. New designs in analysis of variance. Annu Rev Psychol 1987; 38: 29-60). Statistical analyses were performed with commercial statistical software for PC, Stat for Windows R. 5.0.

The subject of a further data set is Male Sprague-Dawley rats. Nature of the data set: Discriminative stimulus effects of chlordiazepoxide in rats (drug discrimination). Particulars: ratio of lowest effective anxiolytic dose (situational anxiety) and lowest effective dose producing chlordiazepoxide-like effects in drug discrimination.
For another data set, the system named is Male CF1 mice. Nature of the data set: Protection from pentylenetetrazole-induced seizures. In kind it is in vivo, mouse. Particulars: PO 60 min before pentylenetetrazole 125 mg/kg s.c. On the procedure:
Protection from Pentylenetetrazole-Induced Seizures
Male CF1 mice weighing 20-22 g at the time of the experiment were purchased from Charles River Laboratories (Wilmington, Mass.). Pentylenetetrazole (Sigma Chemical Co.) was administered at 125 mg/kg s.c. The number of animals surviving was recorded at 30 minutes and 60 minutes after administration of pentylenetetrazole.
Drug Administration: All drugs were administered PO 60 minutes before administration of pentyenetetrazole.
Data Analysis: The data are presented as the percent of animals protected from death. The data were analyzed by Chi Square statistics. The significance level was set at p<0.05.
Mice treated with certain compounds of the present invention were subjected to pentylenetetrazole (PTZ) at 125 mg/kg to induce seizures. The percent of animals protected from death within one hour of PTZ was measured.

Setting [1] is: DZP 1.25 mg/kg ip, t test p ≦ 0.05.

SMILES strings stand for the structures.

On to `CNC1=Nc2ccc(C#C[Si](C)(C)C)cc2C(c2ccccc2)=NC1`, for which the melting point was 210 to 211 °C. Turning to `CCOC(=O)c1ncn2c1CN=C(c1cccs1)c1cc(C#C[Si](C)(C)C)ccc1-2`, the melting point was in the range of 124 to 127 °C. Still for that read-out and setting: for `CCOC(=O)c1ncn2c1CN=C(c1ccccn1)c1cc(C#C[Si](C)(C)C)ccc1-2` the value was 205 to 206 °C; for `CCOC(=O)c1ncn2c1C(C)N=C(c1ccccc1F)c1cc(C#C[Si](C)(C)C)ccc1-2` (centres unmarked), 186 to 187 °C; for `Cc1nnc2n1-c1ccc(C#CC(C)(C)C)cc1C(c1ccccc1Cl)=NC2`, > 268 °C (dec.). Still for that read-out and setting: for `CC(C)(C)OC(=O)c1ncn2c1CN=C(c1ccccc1)c1cc(Br)ccc1-2` the value was 222 to 223 °C; for `C#Cc1ccc2c(c1)C(c1ccccn1)=NCC(=O)N2C`, 190 to 191 °C; for `CCOC(=O)c1ncn2c1C(C)N=C(c1ccccc1)c1cc(C#C[Si](C)(C)C)ccc1-2` (centres unmarked), 160 to 162 °C. Turning to `C#Cc1ccc2c(c1)C(c1ccccc1F)=NC(C)c1c(C(=O)OCC)ncn1-2` (centres unmarked) [SH-053-2′F-S—CH3, 8-Ethynyl-6-(2-fluorophenyl)-4-methyl-4H-2,5,10b-triaza-benzo[e]azulene-3-carboxylic acid ethyl ester], the “Open Entries” value in the data set with male Wistar rats (SH-053-2′F-S—CH3 10 mg/kg ip, t test p = 0.503) is on record as 3.33. In addition, the “Closed Entries” value with male Wistar rats (SH-053-2′F-S—CH3 10 mg/kg ip, t test p ≦ 0.05) is 4.67. Besides, the “Total Distance Travelled (m)” value in the data set with male Wistar rats (SH-053-2′F-S—CH3 10 mg/kg ip, t test p = 0.080) was 6.91 m. For the same molecule, in the data set with male Wistar rats (SH-053-2′F-S—CH3 10 mg/kg ip, t test p = 0.239), the “Total Entries” value worked out at 8.00. Further, in the data set with male Wistar rats (SH-053-2′F-S—CH3 10 mg/kg ip, t test p = 0.536), the “% Open Time” value stood at 25.00%. The “% Open Entries” value in the data set on male Wistar rats (SH-053-2′F-S—CH3 10 mg/kg ip, t test p = 0.147) came to 37.17%. The “Time in open arms” value in the data set on male Wistar rats (SH-053-2′F-S—CH3 10 mg/kg ip, printed t test line doubtful) is listed as 60.50. Further, the “Time in closed arms” value with male Wistar rats (SH-053-2′F-S—CH3 10 mg/kg ip, t test p = 0.586) came to 183.33.

For the molecule `CN1C(=O)CN=C(c2ccccc2)c2cc(Cl)ccc21` [Diazepam, reference compound], the Antianxiety/abuse liability in the data set on Male Sprague-Dawley rats is 5. In the data set on Male CF1 mice, the “PTZ Seizures, effective dose” value is given as <10 mg/kg. In addition, in the data set with male Wistar rats (setting [1]), the “Open Entries” value was 4.83, the “% Open Time” value was determined as 46.33% and the “% Open Entries” value is 47.00%. Besides, the “Closed Entries” value in the data set with male Wistar rats (DZP 1.25 mg/kg ip, t test p = 0.292) was 5.50. Further, in the data set on male Wistar rats (DZP 1.25 mg/kg ip, t test p = 0.670), the “Total Distance Travelled (m)” value is on record as 8.59 m. Also, the “Total Entries” value in the data set on male Wistar rats (DZP 1.25 mg/kg ip, t test p = 0.745) is 10.33. In addition, in the data set with male Wistar rats (DZP 1.25 mg/kg ip, t test p = 0.052), the “Time in open arms” value came to 104.17. Besides, the “Time in closed arms” value in the data set on male Wistar rats (DZP 1.25 mg/kg ip, t test p = 0.064) stood at 129.50. For `CNC1=Nc2ccc(Br)cc2C(c2ccccc2)=NC1`, the melting point is 234 to 235 °C. For `Cc1nnc2n1-c1ccc(C#CC(C)(C)C)cc1C(c1ccccc1)=NC2`, the melting point lay within 184 to 186 °C. The same measure, in the same setting: for `CCOC(=O)c1ncn2c1C(C)N=C(c1ccccn1)c1cc(C#C[Si](C)(C)C)ccc1-2` (centres unmarked) the value was 197 to 198 °C. Same read-out and setting: for `C[Si](C)(C)C#Cc1ccc2c(c1)C(c1ccccc1)=NCc1c(C(=O)OCC(F)(F)F)ncn1-2` the value was 107 to 110 °C; for `CN1C(=O)CN=C(c2ccccn2)c2cc(C#C[Si](C)(C)C)ccc21`, 194 to 195 °C; for `CCOC(=O)c1ncn2c1CN=C(c1ccccc1)c1cc(Cl)ccc1-2`, 174 to 175 °C. Take `O=C(OCC(F)(F)F)c1ncn2c1CN=C(c1ccccc1)c1cc(Br)ccc1-2`: the melting point lay within 202 to 204 °C. As to `O=C(OCC(Cl)(Cl)Cl)c1ncn2c1CN=C(c1ccccc1)c1cc(Br)ccc1-2`, the melting point was in the range of 113 to 116 °C.

For the molecule `CCOC(=O)c1ncn2c1C(C)N=C(c1ccccc1)c1cc(Br)ccc1-2` (centres unmarked), the melting point fell in the range of 164 to 165 °C.
